Earlier results on 1 molecule are cited in patent publication US11612669B2, “Disinfection method and apparatus” (University of Washington, priority 2020, dated 2023).

Structures are written as SMILES.

The test system of the data set is microbes, viruses, and bacteria in blood plasma. As to conditions: one micromolar solution, white light at 45,000 lux for more than one hour.

Regarding `CN(C)c1ccc2nc3ccc(=[N+](C)C)cc-3sc2c1` [methylene blue], the “inactivation of microbes, viruses, and bacteria” value is “can inactivate microbes, viruses, and bacteria”.
